One series addresses T1, perforin (Mus musculus, UniProt P10820).
T1 construct: endogenous in cells; host or cells: recipient cytotoxic lymphocytes (NK/CTL) of wild-type C57BL/6 mice, in vivo
T1 sequence (P10820 21-554): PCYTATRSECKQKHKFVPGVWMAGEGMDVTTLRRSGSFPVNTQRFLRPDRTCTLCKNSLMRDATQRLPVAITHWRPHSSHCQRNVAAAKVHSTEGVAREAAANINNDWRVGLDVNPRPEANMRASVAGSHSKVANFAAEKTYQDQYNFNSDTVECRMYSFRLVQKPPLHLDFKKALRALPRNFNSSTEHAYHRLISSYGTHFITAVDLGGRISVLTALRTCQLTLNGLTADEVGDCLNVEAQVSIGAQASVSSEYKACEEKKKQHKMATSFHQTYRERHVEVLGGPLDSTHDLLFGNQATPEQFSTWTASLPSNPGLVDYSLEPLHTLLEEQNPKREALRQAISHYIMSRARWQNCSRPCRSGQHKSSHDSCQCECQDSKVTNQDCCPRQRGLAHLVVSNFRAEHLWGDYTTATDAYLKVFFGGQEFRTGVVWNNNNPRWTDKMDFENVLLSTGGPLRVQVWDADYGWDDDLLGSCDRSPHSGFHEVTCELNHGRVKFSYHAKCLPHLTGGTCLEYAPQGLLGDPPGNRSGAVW
The series can be described thus: In vivo perforin inhibition (allogeneic bone marrow transfer assay). Particulars: for % perforin inhibition, spleen: 24 h after transplant. The procedure:
This model was selected as a surrogate assay for graft rejection during allogeneic bone marrow/stem cell transplantation to enable rapid testing of perforin inhibition in vivo. Mice were transplanted with a mixture of equal numbers of allogeneic immunologically mismatched and syngeneic immunologically matched bone marrow. […] Allogeneic cell survival in spleen and peripheral blood was determined 24 h after transplant, using C57BL/6 perforin-deficient mice (100% perforin inhibition) and untreated C57BL/6 mice (0% perforin inhibition) as controls.
Compounds were tested for in vivo efficacy as described previously.[14] Age- (8–12 weeks) and sex-matched wild-type (H-2D^b, CD45.2^+) or perforin-deficient C57BL/6 mice (C57BL/6-Prf1^tm1Sdz/J; H-2D^b, CD45.2^+) received 12 ×10^6 bone marrow cells from both allogeneic BALB/c (H-2D^d) MHC-mismatched and syngeneic C57BL/6 (H-2D^b) MHC-matched mice (24 × 10^6 cells total). The wild-type recipient mice were treated with perforin inhibitor compounds by intraperitoneal injection in 20% hydroxypropyl-β-cyclodextrin vehicle (10 mL/kg), or with vehicle alone; perforin-deficient mice remained untreated. The mice were euthanized 24 h after bone marrow transfer for peripheral blood mononuclear cell (PBMC) and spleen collection.
Throughout the study, we utilized two strategies to distinguish between recipient, donor allogeneic, and donor syngeneic cells based on either fluorescent labeling prior to transplant or congenic marker expression (CD45.1/CD45.2). In the fluorescent dye approach, allogeneic wild-type BALB/c (H-2D^d, CD45.2^+) bone marrow was labeled with 1 μM carboxyfluorescein succinimidyl ester (CFSE) prior to mixing with syngeneic bone marrow from C57BL/6 congenic mice (CD45.1^+). Twenty-four hours after cell transfer, the harvested cells were stained with anti-CD45.1-phycoerythrin and anti-TER119-allophycocyanin monoclonal antibodies (BioLegend, San Diego, CA). TER119 was used for erythroid exclusion prior to the identification of allogeneic (CFSE^+) and syngeneic (CD45.1^+) donor cells. Using a second purely congenic marker approach, allogeneic BALB/c congenic (H-2D^d, CD45.1^+) bone marrow was mixed with syngeneic C57BL/6 double congenic (H-2D^b, CD45.1^+CD45.2^+) bone marrow prior to transfer. The harvested cells were stained with anti-CD45.1-phycoerythrin, anti-CD45.2-phycoerythrin-cyanine-7, and anti-TER119-allophycocyanin monoclonal antibodies (BioLegend, San Diego, CA). TER119 was used for erythroid exclusion, prior to identification of allogeneic donor (CD45.1^+), syngeneic donor (CD45.1^+ CD45.2^+), and recipient (CD45.2^+) cells. Dead cells were excluded using 7-aminoactinomycin D. Samples were acquired with an LSR Fortessa (BD Biosciences) and analyzed using FlowJo version 9 software (BD Biosciences). Prism version 9 (GraphPad) was used to calculate CTL indices as the percentage survival of syngeneic donor cells divided by the percentage survival of allogeneic donor cells. […] In vivo perforin inhibition animal experiments were approved by the Animal Ethics Committee of the QIMR Berghofer Medical Research Institute.

Series [1] in a line: Plasma protein binding by equilibrium dialysis. It counts as in vitro ADME, mouse. The note with it: CD1, pH 7.4; mouse plasma, 10 μM, equilibrium dialysis. The procedure: The plasma protein binding of the compounds was determined by equilibrium dialysis (12–14 kDa cutoff membrane). […] The dialysis unit was covered with an adhesive sealing film to prevent evaporation of the contents and placed in an incubator (Innova-42, New Brunswick Scientific) maintained at 37 °C with gentle mixing (80 rpm) for 6 h. Next, a 10 μL sample was aspirated from the plasma side and mixed with 90 μL of fresh PBS, whereas a 90 μL sample from the buffer side was removed and combined with 10 μL of drug-free plasma to ensure uniform matrix composition. Ice-cold acetonitrile (300 μL; Merck Millipore, Burlington, MA) containing internal standard (a BZS analogue of similar chemical structure) was added to each sample to precipitate protein and was vortexed for 2 min and centrifuged for 5 min at 13 000 rpm. The supernatant was diluted with 0.01% formic acid in ultrapure water (Milli-Q) (1:1) and quantitated by liquid chromatography–tandem mass spectrometry (LC-MS/MS). Each compound was tested in triplicate alongside control compounds known to have low (e.g., lidocaine) and high (e.g., amitriptyline) plasma protein binding. For media binding studies, the same assay was used, but RPMI with 0.1% BSA was used in place of CD1 mouse plasma.
(Equilibrium dialysis compares concentrations on both sides of a semipermeable membrane.)

Series [2] in a line: Splenocyte cellularity and tolerability in the bone marrow transfer assay. It counts as in vivo. The procedure:
For the determination of splenic cell counts, mouse spleens were harvested and the cells dispersed in media by gentle teasing and then centrifuged at 500g. Cell pellets were resuspended in media and total spleen cell counts were performed manually using a standard hemocytometer and light microscopy. […] Peripheral blood cell counts and spleen white blood cell counts were determined on a Beckman Coulter Ac.T diff hematology analyzer.

Details of series [3]: method as in PMID 28582670; AUC: concentration or dose not given beside the values. Particulars: mouse plasma; cited from earlier work.
A further series concerns recombinant perforin. The arrangement: method as in PMID 28582670, PMID 28110869. Particulars: lytic activity of recombinant perforin against Jurkat T leukemia cells; cited from earlier work.
The test system of series [4] is perforin-dependent cytotoxicity of KHYG-1 NK cells on K562 target cells. The series can be described thus: KHYG-1 cytotoxicity assay (51Cr-labeled K562 target cells). It counts as cell-based. Particulars: Homo sapiens; concentration inhibiting 90% of perforin-dependent cytotoxicity; K562 targets, effector/target 2:1, 4 h, RPMI 0.1% BSA; read-out: KHYG-1 IC90. The procedure:
(Table 1). […] An IC90 was used rather than an IC50 as we anticipated that elevated suppression of perforin activity is likely required to preserve the transplanted bone marrow stem cells in vivo.
The inhibition of the cytotoxic activity of KHYG-1 NK cells on K562 target cells was determined as described previously.[14] Briefly, compounds were added to KHYG-1 cells at 6–7 concentrations ranging from 20 μM to 312.5 nM in 2-fold dilutions in RPMI medium (Thermo Fisher Scientific, Waltham, MA) supplemented with 0.1% bovine serum albumin (BSA; Sigma-Aldrich, St. Louis, MO) for 20 min. ^51Cr-labeled K562 leukemia target cells were added to KHYG-1 cells at an effector/target ratio of 2:1 and incubated at 37 °C for 4 h. ^51Cr release was assayed using a Harvesting Press (Skatron Instruments, Lier, Norway), and radioactivity was estimated on a Wallac Wizard 1470 Automatic γ counter (Turku, Finland). The IC90 values were calculated by fitting a four-parameter logistic sigmoidal dose–response curve to the data using Prism version 8 (GraphPad, San Diego, CA). Each IC90 value represents the mean of at least three independent experiments, where six to seven concentrations were tested in triplicate for each compound.

Setting [5] is: 100 mg/kg qd x 4 (0, 24, 48 h prior to and 18 h after transfer).
Setting [6] is: all dose levels (100, 75 and 50% of MTD), qd x 4.

As a reminder, the fraction unbound is free concentration divided by total concentration. What is called AUC is concentration integrated over time. For orientation: Cmax means the highest concentration seen after dosing. As usually defined, the IC50 is the point on the concentration scale where inhibition reaches its midpoint. A word on the IC90: it is the point of the concentration-response curve where the effect stands at 90%.

As for `CN1Cc2cc(-c3ccc(-c4cnc(Cl)c(NS(=O)(=O)c5ccc(F)cc5F)c4)s3)ccc2C1=O` [Compound 9, N-{2-chloro-5-[5-(2-methyl-1-oxo-2,3-dihydro-1H-isoindol-5-yl)-2-thienyl]-3-pyridinyl}-2,4-difluorobenzenesulfonamide], the “% perforin inhibition, spleen” value on perforin (120 mg/kg qd x 4 (0, 24, 48 h prior to and 18 h after transfer)) is reported as 61.28%. The “increase in allogeneic bone marrow survival in the spleen, % of that seen in perforin-deficient mice” value on perforin (dose at or near the MTD, 0, 24, 48 h prior to and 18 h after cell transfer) was determined as 61%. In addition, in series [1], the free fraction (fraction unbound) at 6 h, 10 μM is 0.0002. For the same molecule, in series [2] (dose at or near MTD, qd x 4, after allogeneic bone marrow transplantation), the “reduction in splenocyte cellularity” value was “much higher”. Moreover, in series [3], the AUC was 2364 µM·h and the Cmax is 149 µM. Moreover, the IC50 in the series on recombinant perforin was 1.03 µM. The IC90 in series [4] is 1.86 ± 0.44 µM.
`CN1Cc2cc(-c3ccc(-c4cncc(NS(=O)(=O)c5ccc(C#N)cc5)c4)s3)ccc2C1=O` [Compound 6, 4-cyano-N-{5-[5-(2-methyl-1-oxo-2,3-dihydro-1H-isoindol-5-yl)-2-thienyl]-3-pyridinyl}benzenesulfonamide]: the “% perforin inhibition, spleen” value at perforin (setting [5]) was 22.70%. This molecule gave a fraction unbound at 6 h, 10 μM in series [1] of 0.0023. For the same molecule, in series [3], the AUC was 642 µM·h and the Cmax was 87.3 µM. In addition, the IC50 in the series on recombinant perforin was 5.17 µM. Besides, the IC90 in series [4] is 30.9 ± 10.5 µM.
`CN1Cc2cc(-c3ccc(-c4cncc(NS(=O)(=O)c5ccc([N+](=O)[O-])cc5)c4)s3)ccc2C1=O` [Compound 4, N-{5-[5-(2-methyl-1-oxo-2,3-dihydro-1H-isoindol-5-yl)-2-thienyl]-3-pyridinyl}-4-nitrobenzenesulfonamide]: the “% perforin inhibition, spleen” value at perforin (setting [5]) was 80.53%. In series [1], this molecule had a fraction unbound at 6 h, 10 μM of 0.0031. In series [3], the AUC is 383 µM·h and the peak concentration (Cmax) was 64.4 µM. The IC50 in the series on recombinant perforin is 3.13 µM. Also, in series [4], the IC90 was determined as 19.9 ± 3.7 µM.
Turning to `CN1Cc2cc(-c3ccc(-c4cncc(NS(=O)(=O)c5ccc(F)cc5F)c4)s3)ccc2C1=O` [Compound 3, 2,4-difluoro-N-{5-[5-(2-methyl-1-oxo-2,3-dihydro-1H-isoindol-5-yl)-2-thienyl]-3-pyridinyl}benzenesulfonamide], the “% perforin inhibition, spleen” value on perforin (60 mg/kg qd x 4 (0, 24, 48 h prior to and 18 h after transfer)) was 7%. In addition, the “% perforin inhibition, spleen” value at perforin (90 mg/kg qd x 4 (0, 24, 48 h prior to and 18 h after transfer)) was 10%. Moreover, in series [2] (setting [6]), the “reductions in splenocyte number” value was “only minor reductions” and the tolerability result was “well tolerated”. For the same molecule, in series [3], the AUC was 220 µM·h and the peak concentration (Cmax) is 9.8 µM. For the same molecule, the IC90 in series [4] turned out to be 16 ± 3.6 µM.
On to `CN1Cc2cc(-c3ccc(-c4cnc(F)c(NS(=O)(=O)c5ccc(F)cc5F)c4)s3)ccc2C1=O` [Compound 8, 2,4-difluoro-N-{2-fluoro-5-[5-(2-methyl-1-oxo-2,3-dihydro-1H-isoindol-5-yl)-2-thienyl]-3-pyridinyl}benzenesulfonamide], for which, on perforin (160 mg/kg qd x 4 (0, 24, 48 h prior to and 18 h after transfer)), the “% perforin inhibition, spleen” value is recorded as 39.14%. This molecule also showed a fraction unbound at 6 h, 10 μM in series [1] of 0.0003. For the same molecule, in series [3], the AUC is 2885 µM·h and the Cmax is 236 µM. For the same molecule, the IC50 in the series with recombinant perforin was 1.99 µM. Moreover, the IC90 in series [4] was 3.54 ± 0.65 µM.
In the case of `CN1Cc2cc(-c3ccc(-c4cncc(NS(=O)(=O)c5c(F)cc(F)cc5F)c4)s3)ccc2C1=O` [Compound 5, 2,4,6-trifluoro-N-{5-[5-(2-methyl-1-oxo-2,3-dihydro-1H-isoindol-5-yl)-2-thienyl]-3-pyridinyl}benzenesulfonamide], the “% perforin inhibition, spleen” value at perforin (setting [5]) is 14.88%. In series [1], the fraction unbound at 6 h, 10 μM was 0.0048. In series [3], the AUC is 1019 µM·h and the peak concentration (Cmax) was 124 µM. In addition, the IC50 in the series on recombinant perforin was 1.76 µM. Besides, the IC90 in series [4] worked out at 10.1 ± 1.8 µM.

The values above are taken from article PMC9194936, “Preclinical Activity and Pharmacokinetic/Pharmacodynamic Relationship for a Series of Novel Benzenesulfonamide Perforin Inhibitors” (ACS Pharmacology & Translational Science, 2022).
